Patent US20220089568A1 (Janssen Biotech, Inc., priority 2019, published 2022)

What was measured:
human DHODH = molecular target: T1, human DHODH (Homo sapiens, UniProt Q02127); test: DHODH Enzymatic Assay; type: biochemical; settings: purified human DHODH; DCIP absorbance, end-point mode
T1 construct: purchased Proteros PR-0044
Summary of the method: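 Purified human DHODH activity read as absorbance of DCIP, the terminal electron acceptor, in […] pH 7.5, 150 mM NaCl, 0.5 mM EDTA, 0.1% Triton X-100. Reaction started with a substrate mix of 20 mM DHO, 5 mM CoQ6 and 1 mM DCIP in assay buffer.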

MOLM-13 cells = test: MOLM-13 Cellular Assay; type: cell-based; settings: Homo sapiens, 72 hours exposure, cell viability by CellTiter-Glo
Protocol: The day prior to assay set-up, cells were pelleted, resuspended in fresh media, counted, and cells were plated at 0.4×10^6 cell/mL in a T150 flask. […] Cells were exposed to different concentrations of test compounds at 37° C., 5% CO2 for 72 hours immediately after seeding.

T1 sequence (Q02127 whole entry): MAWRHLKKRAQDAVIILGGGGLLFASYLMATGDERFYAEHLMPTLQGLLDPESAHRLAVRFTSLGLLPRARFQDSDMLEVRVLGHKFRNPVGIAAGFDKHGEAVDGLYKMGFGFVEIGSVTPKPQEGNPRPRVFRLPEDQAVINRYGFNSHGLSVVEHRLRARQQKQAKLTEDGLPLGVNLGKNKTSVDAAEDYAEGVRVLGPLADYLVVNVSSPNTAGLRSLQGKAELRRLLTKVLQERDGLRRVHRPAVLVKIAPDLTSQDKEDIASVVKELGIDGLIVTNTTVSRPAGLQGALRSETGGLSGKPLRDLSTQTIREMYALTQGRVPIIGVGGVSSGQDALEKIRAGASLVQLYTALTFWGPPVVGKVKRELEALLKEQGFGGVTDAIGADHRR

Compound | EC50 (human DHODH) [nM] | EC50 (MOLM-13 cells) [nM]
CCn1c(CO)nn(-c2nc(O[C@@H](C)C(F)(F)F)c(C(=O)Nc3cnn(CCOC)c3)cc2F)c1=O [Example 63, (S)-6-(4-Ethyl-3-(hydroxymethyl)-5-oxo-4,5-dihydro-1H-1,2,4-triazol-1-yl)-5-fluoro-N-(1-(2-methoxyethyl)-1H-pyrazol-4-yl)-2-((1,1,1-trifluoropropan-2-yl)oxy)nicotinamide] | 865 | > 100
CCn1c(CO)nn(-c2nc(O[C@@H](C)C(F)(F)F)c(C(=O)Nc3c(Cl)ccc(=O)n3C)cc2F)c1=O [Example 64, (S)-N-(3-Chloro-1-methyl-6-oxo-1,6-dihydropyridin-2-yl)-6-(4-ethyl-3-(hydroxymethyl)-5-oxo-4,5-dihydro-1H-1,2,4-triazol-1-yl)-5-fluoro-2-((1,1,1-trifluoropropan-2-yl)oxy)nicotinamide] | 101 | > 100
CCn1c(CO)nn(-c2nc(O[C@@H](C)C(F)(F)F)c(C(=O)Nc3cc(OC)ncc3F)cc2F)c1=O [Example 65, (S)-6-(4-Ethyl-3-(hydroxymethyl)-5-oxo-4,5-dihydro-1H-1,2,4-triazol-1-yl)-5-fluoro-N-(5-fluoro-2-methoxypyridin-4-yl)-2-((1,1,1-trifluoropropan-2-yl)oxy)nicotinamide] | 202 | > 100
CCn1c(CO)nn(-c2nc(O[C@@H](C)C(F)(F)F)c(C(=O)Nc3cc(OC)ncc3C)cc2F)c1=O [Example 66, (S)-6-(4-ethyl-3-(hydroxymethyl)-5-oxo-4,5-dihydro-1H-1,2,4-triazol-1-yl)-5-fluoro-N-(2-methoxy-5-methylpyridin-4-yl)-2-((1,1,1-trifluoropropan-2-yl)oxy)nicotinamide] | 9.9 | 19.9
CCOc1ncc(F)c(NC(=O)c2cc(F)c(-n3nc(CO)n(CC)c3=O)nc2O[C@@H](C)C(F)(F)F)n1 [Example 70, (S)-N-(2-Ethoxy-5-fluoropyrimidin-4-yl)-6-(4-ethyl-3-(hydroxymethyl)-5-oxo-4,5-dihydro-1H-1,2,4-triazol-1-yl)-5-fluoro-2-((1,1,1-trifluoropropan-2-yl)oxy)nicotinamide] | 489 | > 100
CCn1c(CO)nn(-c2nc(O[C@@H](C)C(F)(F)F)c(C(=O)Nc3c(C)cncc3F)cc2F)c1=O [Example 71, (S)-6-(4-Ethyl-3-(hydroxymethyl)-5-oxo-4,5-dihydro-1H-1,2,4-triazol-1-yl)-5-fluoro-N-(3-fluoro-5-methylpyridin-4-yl)-2-((1,1,1-trifluoropropan-2-yl)oxy)nicotinamide] | 5.6 | 21.1
CCn1c(CO)nn(-c2nc(O[C@@H](C)C(F)(F)F)c(C(=O)Nc3nccn3C3CC3)cc2F)c1=O [Example 73, (S)-N-(1-Cyclopropyl-1H-imidazol-2-yl)-6-(4-ethyl-3-(hydroxymethyl)-5-oxo-4,5-dihydro-1H-1,2,4-triazol-1-yl)-5-fluoro-2-((1,1,1-trifluoropropan-2-yl)oxy)nicotinamide] | 95.2 | > 100
CCn1c(CO)nn(-c2nc(O[C@@H](C)C(F)(F)F)c(C(=O)Nc3cc(C#N)ccc3Cl)cc2F)c1=O [Example 74, (S)-N-(2-Chloro-5-cyanophenyl)-6-(4-ethyl-3-(hydroxymethyl)-5-oxo-4,5-dihydro-1H-1,2,4-triazol-1-yl)-5-fluoro-2-((1,1,1-trifluoropropan-2-yl)oxy)nicotinamide] | 1.7 | 13
CCn1c(CO)nn(-c2nc(O[C@@H](C)C(F)(F)F)c(C(=O)Nc3cc(C(F)F)ncc3F)cc2F)c1=O [Example 81, N-[2-(Difluoromethyl)-5-fluoro-4-pyridyl]-6-[4-ethyl-3-(hydroxymethyl)-5-oxo-1,2,4-triazol-1-yl]-5-fluoro-2-[(1S)-2,2,2-trifluoro-1-methyl-ethoxy]pyridine-3-carboxamide] | 568 | > 100
CCn1c(CO)nn(-c2nc(O[C@@H](C)C(F)(F)F)c(C(=O)Nc3nc(OC)ncc3F)cc2F)c1=O [Example 82, 6-[4-Ethyl-3-(hydroxymethyl)-5-oxo-1,2,4-triazol-1-yl]-5-fluoro-N-(5-fluoro-2-methoxy-pyrimidin-4-yl)-2-[(1S)-2,2,2-trifluoro-1-methyl-ethoxy]pyridine-3-carboxamide] | 729 | > 100
CCn1c(CO)nn(-c2nc(O[C@@H](C)C(F)(F)F)c(C(=O)Nc3c(C)cnc(OC)c3C)cc2F)c1=O [Example 85, 6-[4-Ethyl-3-(hydroxymethyl)-5-oxo-1,2,4-triazol-1-yl]-5-fluoro-N-(2-methoxy-3,5-dimethyl-4-pyridyl)-2-[(1S)-2,2,2-trifluoro-1-methyl-ethoxy]pyridine-3-carboxamide] | 0.91 | 1.1

Results, then the molecule that gave them:

EC50 (human DHODH) [nM] | EC50 (MOLM-13 cells) [nM] | Compound
5.7 | 46.5 | CCn1c(CO)nn(-c2nc(O[C@@H](C)C(F)(F)F)c(C(=O)Nc3cc(C)cnc3Cl)cc2F)c1=O [Example 67, (S)-N-(2-Chloro-5-methylpyridin-3-yl)-6-(4-ethyl-3-(hydroxymethyl)-5-oxo-4,5-dihydro-1H-1,2,4-triazol-1-yl)-5-fluoro-2-((1,1,1-trifluoropropan-2-yl)oxy)nicotinamide]
0.87 | 0.886 | CCn1c(CO)nn(-c2nc(O[C@@H](C)C(F)(F)F)c(C(=O)Nc3c(C)ccnc3OC)cc2F)c1=O [Example 68, (S)-6-(4-Ethyl-3-(hydroxymethyl)-5-oxo-4,5-dihydro-1H-1,2,4-triazol-1-yl)-5-fluoro-N-(2-methoxy-4-methylpyridin-3-yl)-2-((1,1,1-trifluoropropan-2-yl)oxy)nicotinamide]
0.611 | 0.673 | CCn1c(CO)nn(-c2nc(O[C@@H](C)C(F)(F)F)c(C(=O)Nc3c(Cl)ccnc3Cl)cc2F)c1=O [Example 69, (S)-N-(2,4-Dichloropyridin-3-yl)-6-(4-ethyl-3-(hydroxymethyl)-5-oxo-4,5-dihydro-1H-1,2,4-triazol-1-yl)-5-fluoro-2-((1,1,1-trifluoropropan-2-yl)oxy)nicotinamide]
0.895 | 1.4 | CCn1c(CO)nn(-c2nc(O[C@@H](C)C(F)(F)F)c(C(=O)Nc3c(C)cc(C)nc3Cl)cc2F)c1=O [Example 72, (S)-N-(2-Chloro-4,6-dimethylpyridin-3-yl)-6-(4-ethyl-3-(hydroxymethyl)-5-oxo-4,5-dihydro-1H-1,2,4-triazol-1-yl)-5-fluoro-2-((1,1,1-trifluoropropan-2-yl)oxy)nicotinamide]
19.2 | > 100 | CCn1c(CO)nn(-c2nc(O[C@@H](C)C(F)(F)F)c(C(=O)Nc3cc(C#N)cnc3Cl)cc2F)c1=O [Example 75, (S)-N-(2-Chloro-5-cyanopyridin-3-yl)-6-(4-ethyl-3-(hydroxymethyl)-5-oxo-4,5-dihydro-1H-1,2,4-triazol-1-yl)-5-fluoro-2-((1,1,1-trifluoropropan-2-yl)oxy)nicotinamide]
3.6 | 27.9 | CCn1c(CO)nn(-c2nc(O[C@@H](C)C(F)(F)F)c(C(=O)Nc3c(N(C)C)ccnc3OC)cc2F)c1=O [Example 76, (S)-N-(4-(Dimethylamino)-2-methoxypyridin-3-yl)-6-(4-ethyl-3-(hydroxymethyl)-5-oxo-4,5-dihydro-1H-1,2,4-triazol-1-yl)-5-fluoro-2-((1,1,1-trifluoropropan-2-yl)oxy)nicotinamide]
14 | 13.2 | CCn1c(CO)nn(-c2nc(O[C@@H](C)C(F)(F)F)c(C(=O)Nc3ccc(C)nc3Cl)cc2F)c1=O [Example 77, N-(2-Chloro-6-methyl-3-pyridyl)-6-[4-ethyl-3-(hydroxymethyl)-5-oxo-1,2,4-triazol-1-yl]-5-fluoro-2-[(1S)-2,2,2-trifluoro-1-methyl-ethoxy]pyridine-3-carboxamide]
12.3 | 25 | CCn1c(CO)nn(-c2nc(O[C@@H](C)C(F)(F)F)c(C(=O)Nc3cc(F)cnc3Cl)cc2F)c1=O [Example 78, N-(2-Chloro-5-fluoro-3-pyridyl)-6-[4-ethyl-3-(hydroxymethyl)-5-oxo-1,2,4-triazol-1-yl]-5-fluoro-2-[(1S)-2,2,2-trifluoro-1-methyl-ethoxy]pyridine-3-carboxamide]
1.9 | 5.3 | CCn1c(CO)nn(-c2nc(O[C@@H](C)C(F)(F)F)c(C(=O)Nc3c(Cl)ccnc3C)cc2F)c1=O [Example 79, N-(4-Chloro-2-methyl-3-pyridyl)-6-[4-ethyl-3-(hydroxymethyl)-5-oxo-1,2,4-triazol-1-yl]-5-fluoro-2-[(1S)-2,2,2-trifluoro-1-methyl-ethoxy]pyridine-3-carboxamide]
7.2 | 12.9 | CCn1c(CO)nn(-c2nc(O[C@@H](C)C(F)(F)F)c(C(=O)Nc3cn(C)nc3Cl)cc2F)c1=O [Example 80, N-(3-Chloro-1-methyl-pyrazol-4-yl)-6-[4-ethyl-3-(hydroxymethyl)-5-oxo-1,2,4-triazol-1-yl]-5-fluoro-2-[(1S)-2,2,2-trifluoro-1-methyl-ethoxy]pyridine-3-carboxamide]
0.69 | 0.73 | CCn1c(CO)nn(-c2nc(O[C@@H](C)C(F)(F)F)c(C(=O)Nc3c(Cl)ccc(C)c3C)cc2F)c1=O [Example 83, N-(6-Chloro-2,3-dimethyl-phenyl)-6-[4-ethyl-3-(hydroxymethyl)-5-oxo-1,2,4-triazol-1-yl]-5-fluoro-2-[(1S)-2,2,2-trifluoro-1-methyl-ethoxy]pyridine-3-carboxamide]
5.1 | 4.8 | CCCn1c(CO)nn(-c2nc(O[C@@H](C)C(F)(F)F)c(C(=O)Nc3c(C)ccnc3Cl)cc2F)c1=O [Example 84, N-(2-Chloro-4-methyl-3-pyridyl)-5-fluoro-6-[3-(hydroxymethyl)-5-oxo-4-propyl-1,2,4-triazol-1-yl]-2-[(1S)-2,2,2-trifluoro-1-methyl-ethoxy]pyridine-3-carboxamide]
